± gives the expanded uncertainty stated by the source.
Key:
[1] = Crystal; DTA
[2] = Molar enthalpy of transition or fusion; settings: Crystal; DSC

Q: For CC(=O)c1ccc(C)c2ccccc12 [1-(4-methyl-1-naphthyl) ethanone], which Normal melting temperature [1] is on record?
A: The Normal melting temperature was 312.00 ± 4 °C.

Q: And the “Molar enthalpy of transition or fusion” value [2]?
A: The value was 3.47 ± 0.112 kcal/mol.
